Several values for one entry are separate records, joined by “and”; a condition that tells them apart may be missing. Equal entries are not always repeated.
System: 966289-007-R4-J1-PDC complex spheroid viability
Test: Anticancer human tumor 966289-007-R4-J1-PDC patient-derived pancreatic adenocarcinoma cell line growth inhibition [GQUAD]
Conditions: for viability, T/C: stronger effect = lower value
Description: DNA G-quadruplex Stabilizer Agents in Combinations in Complex Spheroids
A high-throughput screen of multi-cell type tumor spheroids was designed to identify active combinations of DNA G-quadruplex stabilizer agents and targeted small molecules. Complex spheroids include a stromal component modeled by human endothelial cells (HUVEC) and fibroblasts modeled by human mesenchymal stem cells (MSCs). The concentration ranges selected for each drug and investigational agent were based upon clinically achievable concentrations if the clinical Cmax of the agent was known.
Compounds. The drugs and investigational agents: pidnarulex (CX-5461; NSC782164), APTO-253 (NSC789042), BRACO-19 (NSC847499), peposertib (NSC802822), ceralasertib (NSC780249), elimusertib (NSC800525), camonsertib (NSC841442), AZD-1390 (NSC803789), olaparib (NSC753686), talazoparib (NSC767125), ART-558 (NSC835418), sotorasib (NSC818433), MRTX-1133 (NSC836407), SN-38 (NSC673596), topotecan (NSC609699), etoposide (NSC141540), doxorubicin (NSC123127), gemcitabine (NSC613327), 5-fluorouracil (NSC19893), paclitaxel (NSC125973), vemurafenib (NSC761431), panobinostat (NSC761190), R-306465 (JNJ-16241199; NSC773264), adavosertib (NSC754352), TP-3654 (NSC805149), carboplatin (NSC241240), KSQ-4279 (NSC840948), and staurosporine (NSC755774) were obtained from the National Cancer Institute (NCI) Developmental Therapeutics Program Chemical Repository (34). The FDA-approved anticancer drug set is available from the NCI Developmental Therapeutics Program. […] The stock solutions were prepared in dimethyl sulfoxide (DMSO, Sigma-Aldrich, St. Louis, MO, cat. D2650) at 800-fold the tested concentration and stored at -70 degrees C prior to their use. All drugs and investigational agents were tested over a range starting from a high concentration at or near the clinical Cmax and decreasing in half-log increments. If the clinical Cmax for an agent had not been determined, the highest concentration tested was 10 microM.
2.3 Cell Culture. All cells were maintained in an incubator at 37 degrees C and 5% CO2 with 95% humidity. The PDC lines were cultured according to standard operating procedures established by the NCI PDMR. All PDCs were thawed and cultured in Matrigel-coated flasks prepared with a working solution of 1X Ham's F-12 nutrient mix, without supplementation (Invitrogen, cat. 11765054), 100 U/mL penicillin-streptomycin (Invitrogen, cat. 15140122), and 2.5% Matrigel (Corning Inc., cat. 354248) for the first three passages. The 857933-349-R-J2-PDC line was cultured in 6C/Colon 1B media, which includes advanced DMEM/F-12 (Thermo Fisher Scientific, cat. 12634028), 10 mM HEPES (Thermo Fisher Scientific, cat. 15630080), 1X GlutaMAX supplement (Thermo Fisher Scientific, cat. 35050061), 0.1 mg/mL primocin (InvivoGen, cat. ant-pm-2), 10% defined fetal bovine serum, heat inactivated (HyClone Laboratories Inc., cat. SH30070.03HI), 50% L-WRN conditioned media (ATCC, cat. CRL-3276), 1.25 mM N-Acetyl-L-cysteine (Sigma-Aldrich, cat. A9165), 10 mM nicotinamide (Sigma-Aldrich, cat. N0636), 1X B-27 supplement (Thermo Fisher Scientific, cat. 17504044), 1X N-2 supplement (Thermo Fisher Scientific, cat. 17502048), 10 microM Y-27632 dihydrochloride (Tocris Bioscience, cat. 1254), and 50 ng/mL human EGF recombinant protein (Thermo Fisher Scientific, cat. PHG0311). The 485176-168-R4-J1-PDC line was cultured in Panc media, which includes all 6C/Colon 1B media components plus 100 ng/mL human FGF-10 (Thermo Fisher Scientific, cat. 100-26), 500 nM SB-431542 (Selleckchem, cat. S1067), and gastrin (Tocris, cat. 3006).
[…]

[1] = curve of first compound, second compound 0.0316 µM
[2] = curve of first compound, second compound 0.1 µM
[3] = curve of first compound, second compound 0.316 µM
[4] = curve of first compound, second compound 1 µM
[5] = curve of first compound, second compound 3.16 µM
[6] = curve of first compound, second compound 10 µM
[7] = second compound 0.0316 µM, first compound 0.0316 µM
[8] = second compound 0.0316 µM, first compound 0.1 µM
[9] = second compound 0.0316 µM, first compound 0.316 µM
[10] = second compound 0.0316 µM, first compound 1 µM
[11] = second compound 0.0316 µM, first compound 3.16 µM
[12] = second compound 0.0316 µM, first compound 10 µM
[13] = second compound 0.1 µM, first compound 0.0316 µM
[14] = second compound 0.1 µM, first compound 0.1 µM
[15] = second compound 0.1 µM, first compound 0.316 µM
[16] = second compound 0.1 µM, first compound 1 µM
[17] = second compound 0.1 µM, first compound 3.16 µM
[18] = second compound 0.1 µM, first compound 10 µM
[19] = second compound 0.316 µM, first compound 0.0316 µM
[20] = second compound 0.316 µM, first compound 0.1 µM
[21] = second compound 0.316 µM, first compound 0.316 µM
[22] = second compound 0.316 µM, first compound 1 µM
[23] = second compound 0.316 µM, first compound 3.16 µM
[24] = second compound 0.316 µM, first compound 10 µM
[25] = second compound 1 µM, first compound 0.0316 µM
[26] = second compound 1 µM, first compound 0.1 µM
[27] = second compound 1 µM, first compound 0.316 µM
[28] = second compound 1 µM, first compound 1 µM
[29] = second compound 1 µM, first compound 3.16 µM
[30] = second compound 1 µM, first compound 10 µM
[31] = second compound 3.16 µM, first compound 0.0316 µM
[32] = second compound 3.16 µM, first compound 0.1 µM
[33] = second compound 3.16 µM, first compound 0.316 µM
[34] = second compound 3.16 µM, first compound 1 µM
[35] = second compound 3.16 µM, first compound 3.16 µM
[36] = second compound 3.16 µM, first compound 10 µM
[37] = second compound 10 µM, first compound 0.0316 µM
[38] = second compound 10 µM, first compound 0.1 µM
[39] = second compound 10 µM, first compound 0.316 µM
[40] = second compound 10 µM, first compound 1 µM
[41] = second compound 10 µM, first compound 3.16 µM
[42] = second compound 10 µM, first compound 10 µM
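Further: spheroids exposed to the agents for seven days before readout.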
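Wherever viability, T/C is given: percent viability relative to DMSO vehicle control wells taken as 100%.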

## COc1ccc([C@@H](O)c2cc(-c3ncnc4cc(N5CCOCC5)ccc34)c(F)cc2Cl)nn1 + Cc1[nH]c2ccc(F)cc2c1-c1nc2c3cccnc3c3ncccc3c2[nH]1
[1]
  IC50: > 10000 nM
[2]
  IC50: > 10000 nM
[3]
  IC50: > 10000 nM
[4]
  IC50: > 10000 nM
[5]
  IC50: > 10000 nM
[6]
  IC50: > 10000 nM
[7]
  viability, T/C: 106%
[8]
  viability, T/C: 94.7%
[9]
  viability, T/C: 108%
[10]
  viability, T/C: 104%
[11]
  viability, T/C: 112%
[12]
  viability, T/C: 85.6%
[13]
  viability, T/C: 107%
[14]
  viability, T/C: 101%
[15]
  viability, T/C: 106%
[16]
  viability, T/C: 104%
[17]
  viability, T/C: 111%
[18]
  viability, T/C: 87.8%
[19]
  viability, T/C: 94.5%
[20]
  viability, T/C: 102%
[21]
  viability, T/C: 104%
[22]
  viability, T/C: 108%
[23]
  viability, T/C: 111%
[24]
  viability, T/C: 92.9%
[25]
  viability, T/C: 91.3%
[26]
  viability, T/C: 98.4%
[27]
  viability, T/C: 108%
[28]
  viability, T/C: 106%
[29]
  viability, T/C: 109%
[30]
  viability, T/C: 87.8%
[31]
  viability, T/C: 100%
[32]
  viability, T/C: 103%
[33]
  viability, T/C: 109%
[34]
  viability, T/C: 108%
[35]
  viability, T/C: 103%
[36]
  viability, T/C: 70.7%
[37]
  viability, T/C: 103%
[38]
  viability, T/C: 103%
[39]
  viability, T/C: 106%
[40]
  viability, T/C: 102%
[41]
  viability, T/C: 105%
[42]
  viability, T/C: 56.3%

## COc1ccc([C@@H](O)c2cc(-c3ncnc4cc(N5CCOCC5)ccc34)c(F)cc2Cl)nn1
Compound 0.0316 µM
  viability, T/C: 103% and 98.9% and 97.2%
Compound 0.1 µM
  viability, T/C: 92.9% and 100% and 92%
Compound 0.316 µM
  viability, T/C: 110% and 106% and 105%
Compound 1 µM
  viability, T/C: 103% (2×) and 108%
Compound 3.16 µM
  viability, T/C: 113% and 110% and 126%
Compound 10 µM
  viability, T/C: 90.2% and 103% and 108%
Curve of compound
  IC50: > 10000 nM

## Cc1cnc(CNC(=O)c2c(=O)c3ccc(N4CCCN(C)CC4)nc3n3c2sc2ccccc23)cn1
Compound 0.1 µM
  viability, T/C: 36.7% [middle of 12 runs]
Compound 0.316 µM
  viability, T/C: 12.6% [middle of 12 runs]
Compound 1 µM
  viability, T/C: 6.91% [middle of 11 runs]
Compound 3.16 µM
  viability, T/C: 5.45% [middle of 11 runs]
Compound 10 µM
  viability, T/C: 0.16% [middle of 11 runs]
Compound alone, run of 03/18/2024
  IC50: 81.7 nM [middle of 11 runs]

## O=c1[nH]cc(F)c(=O)[nH]1
Compound 0.0316 µM
  viability, T/C: 102% and 98.6% and 93.7%
Compound 0.1 µM
  viability, T/C: 102% and 85.7% and 101%
Compound 0.316 µM
  viability, T/C: 14% and 12.6% and 16.4%
Compound 1 µM
  viability, T/C: 6.4% and 6.04% and 6.66%
Compound 3.16 µM
  viability, T/C: 6.46% and 5.66% and 4.89%
Compound 10 µM
  viability, T/C: 6.43% and 6.71% and 6.08%
Curve of compound
  IC50: 197 nM and 176 nM and 196 nM

## CC1COCCN1c1cc(-c2ccnn2C)c2ccnc(-c3ccn[nH]3)c2n1 (centres undefined) + Cc1cnc(CNC(=O)c2c(=O)c3ccc(N4CCCN(C)CC4)nc3n3c2sc2ccccc23)cn1
[1]
  IC50: < 31.6 nM
[2]
  IC50: < 31.6 nM
[3]
  IC50: < 31.6 nM
[4]
  IC50: < 31.6 nM
[5]
  IC50: < 31.6 nM
[6]
  IC50: < 31.6 nM
[7]
  viability, T/C: 24.3%
[8]
  viability, T/C: 6.05%
[9]
  viability, T/C: 4.12%
[10]
  viability, T/C: 4.23%
[11]
  viability, T/C: 3.36%
[12]
  viability, T/C: 2.9%
[13]
  viability, T/C: 6.63%
[14]
  viability, T/C: 3.84%
[15]
  viability, T/C: 4.03%
[16]
  viability, T/C: 4.94%
[17]
  viability, T/C: 3.73%
[18]
  viability, T/C: 3.29%
[19]
  viability, T/C: 7.42%
[20]
  viability, T/C: 5.9%
[21]
  viability, T/C: 5.46%
[22]
  viability, T/C: 5.36%
[23]
  viability, T/C: 3.91%
[24]
  viability, T/C: 3.35%
[25]
  viability, T/C: 5.44%
[26]
  viability, T/C: 5.41%
[27]
  viability, T/C: 6.4%
[28]
  viability, T/C: 6.38%
[29]
  viability, T/C: 5.26%
[30]
  viability, T/C: 3.91%
[31]
  viability, T/C: 3.88%
[32]
  viability, T/C: 3.62%
[33]
  viability, T/C: 4.85%
[34]
  viability, T/C: 5.21%
[35]
  viability, T/C: 6.21%
[36]
  viability, T/C: 4.16%
[37]
  viability, T/C: 0.03%
[38]
  viability, T/C: 0.07%
[39]
  viability, T/C: 0.1%
[40]
  viability, T/C: 0.08%
[41]
  viability, T/C: 0.11%
[42]
  viability, T/C: 0.15%

Reference: PubChem BioAssay AID2060488 (Molecular Pharmacology Branch, DTP, NCI, 2025)
